Laboratory results: ChEMBL document CHEMBL1150488 (1993)
Values after ≈ are worked out from the molar mass of the structure shown.

Assays:
Bacteroides fragilis [1] = assay: Tested for zone of inhibition against Bacteroides fragilis UC6513 (1 mg/mL, 80 microL/12.7 mm); format: functional
Clostridium perfringens [2] = assay: Tested for zone of inhibition against Clostridium perfringens UC6509; format: functional
[3] = test system: Staphylococcus epidermidis; assay: Tested for zone of inhibition against Staphylococcus epidermidis UC719 (1 mg/mL, 80 microL/6.5 mm); format: functional
Staphylococcus aureus [4] = assay: Tested for zone of inhibition against Staphylococcus aureus UC3665 (1 mg/mL, 80 microL/12.7 mm); format: functional
Staphylococcus aureus [5] = assay: Tested for zone of inhibition against Staphylococcus aureus UC6685 (1 mg/mL, 80 microL/6.5 mm); format: functional
Streptococcus pyogenes = assay: Tsted in vitro for its antibacterial activity against Streptococcus pyogenes UC152; format: functional
Escherichia coli = assay: Tested in vitro for its antibacterial activity against Escherichia coli UC9379; format: functional
Mycobacterium avium = assay: The compound (1 mg/mL, 80 microL/12.7 mm) was tested for zone of inhibition against Mycobacterium avium UC159; Tr = trace; format: functional, organism-based
Bacteroides fragilis [6] = assay: Tested in vitro for its antibacterial activity against Bacteroides fragilis UC9370 [clindamycin 1 micro g/mL]; format: functional
Fusobacterium nucleatum = assay: Tested in vitro for its antibacterial activity against Fusobacterium nucleatum UC6324; format: functional
Cutibacterium acnes = assay: Tested in vitro for its antibacterial activity against Propionibacterium acnes UC6564; format: functional
[7] = Tested in vitro for its antibacterial activity against Peptococcus variabilis UC6320; format: functional
Clostridium perfringens [8] = assay: Tested in vitro for its antibacterial activity against Clostridium perfringens UC6509; format: functional
[9] = test system: Parabacteroides distasonis; assay: Tested in vitro for its antibacterial activity against Bacteroides distasonis UC6518; format: functional
[10] = test system: Prevotella melaninogenica; assay: Tested in vitro for its antibacterial activity against Bacteroides melaninogenicus UC 6523; format: functional
[11] = test system: Staphylococcus epidermidis; assay: The compound (1 mg/mL, 80 microL/6.5 mm) was tested for zone of inhibition against Staphylococcus epidermidis UC719 (20H -, H: Hazy zone); format: functional
Staphylococcus aureus [12] = assay: The compound (1 mg/mL, 80 microL/6.5 mm) was tested for zone of inhibition against Staphylococcus aureus UC6685 (21H -, H: Hazy zone); format: functional
[13] = test system: Bacteroides thetaiotaomicron; assay: Tested in vitro for its antibacterial activity against Bacteroides thetaiotaomicron UC 9014[clindamycin 2 micro g/mL]; format: functional
Clostridium perfringens [14] = assay: The compound (1 mg/mL, 80 microL/12.7 mm) was tested for zone of inhibition against Clostridium perfringens UC6509; format: functional
Staphylococcus aureus [15] = assay: The compound (1 mg/mL, 80 microL/6.5 mm) was tested for zone of inhibition against Staphylococcus aureus UC6685 (20H -, H: Hazy zone); format: functional
[16] = test system: Staphylococcus epidermidis; assay: The compound (1 mg/mL, 80 microL/6.5 mm) was tested for zone of inhibition against Staphylococcus epidermidis UC719 (14H -, H: Hazy zone); format: functional
Clostridium perfringens [17] = assay: The compound (1 mg/mL, 80 microL/12.7 mm) was tested for zone of inhibition against Clostridium perfringens UC6509 (33H -, H: Hazy zone); format: functional

SMILES: CCCCCC(=O)N1C/C(=C(\C)CF)C1=O
- Diameter of inhibition zone (Bacteroides fragilis [1]): 88 mm
- Diameter of inhibition zone (Clostridium perfringens [2]): 78 mm
- Diameter of inhibition zone [3]: 31 mm
- Diameter of inhibition zone (Staphylococcus aureus [4]): 36 mm
- Diameter of inhibition zone (Staphylococcus aureus [5]): 39 mm

SMILES: CO[C@@]1(NC(=O)C(C(=O)O)c2ccc(O)cc2)C(=O)N2C(C(=O)O)=C(CSc3nnnn3C)CO[C@@H]21 (some centres undefined) [MOXALACTAM]
- MIC (Streptococcus pyogenes): 0.5 µg/mL (≈ 0.961 µM)
- MIC (Escherichia coli): 0.06 µg/mL (≈ 0.115 µM)

SMILES: CCCCCC(=O)N1C/C(=C(/C)CO)C1=O
- Diameter of inhibition zone (Bacteroides fragilis [1]): 27 mm
- Diameter of inhibition zone (Mycobacterium avium): Trace
- Diameter of inhibition zone (Clostridium perfringens [2]): 28 mm
- Diameter of inhibition zone [3]: 0 mm
- Diameter of inhibition zone (Staphylococcus aureus [4]): 0 mm
- Diameter of inhibition zone (Staphylococcus aureus [5]): 0 mm

SMILES: CCCC(=O)N1C[C@H]([C@@H](C)COC(C)=O)C1=O
- Diameter of inhibition zone (Bacteroides fragilis [1]): 36 mm
- Diameter of inhibition zone (Clostridium perfringens [2]): 0 mm
- Diameter of inhibition zone [3]: 0 mm
- Diameter of inhibition zone (Staphylococcus aureus [4]): 0 mm
- Diameter of inhibition zone (Staphylococcus aureus [5]): 0 mm

SMILES: CCCCCC(=O)N1C/C(=C(\C)COC(C)=O)C1=O
- Diameter of inhibition zone (Bacteroides fragilis [1]): 30 mm
- Diameter of inhibition zone (Clostridium perfringens [2]): 0 mm
- Diameter of inhibition zone [3]: 7 mm
- Diameter of inhibition zone (Staphylococcus aureus [4]): 19 mm
- Diameter of inhibition zone (Staphylococcus aureus [5]): 12 mm

SMILES: CCCC(=O)OC[C@@H](C)[C@H]1CN(C(=O)CCC)C1=O
- MIC (Streptococcus pyogenes): > 160 µg/mL
- MIC (Bacteroides fragilis [6]): 64 µg/mL (≈ 238 µM)
- Diameter of inhibition zone (Clostridium perfringens [2]): 63 mm
- MIC (Fusobacterium nucleatum): 64 µg/mL (≈ 238 µM)
- Diameter of inhibition zone (Staphylococcus aureus [4]): 28 mm
- MIC (Cutibacterium acnes): 8 µg/mL (≈ 29.7 µM)
- MIC [7]: 256 µg/mL (≈ 950 µM)
- MIC (Clostridium perfringens [8]): 128 µg/mL (≈ 475 µM)
- MIC [9]: 128 µg/mL (≈ 475 µM)
- MIC [10]: 8 µg/mL (≈ 29.7 µM)
- Diameter of inhibition zone [11]: 20 mm
- Diameter of inhibition zone (Staphylococcus aureus [12]): 21 mm
- MIC (Escherichia coli): > 160 µg/mL
- MIC [13]: 32 µg/mL (≈ 119 µM)

SMILES: CCCCCC(=O)OC[C@@H](C)[C@H]1CN(C(=O)CCCCC)C1=O
- MIC (Streptococcus pyogenes): > 160 µg/mL
- MIC (Bacteroides fragilis [6]): 8 µg/mL (≈ 24.6 µM)
- MIC (Fusobacterium nucleatum): 16 µg/mL (≈ 49.2 µM)
- Diameter of inhibition zone [3]: 8 mm
- Diameter of inhibition zone (Staphylococcus aureus [4]): 31 mm
- MIC (Cutibacterium acnes): 4 µg/mL (≈ 12.3 µM)
- MIC [7]: 256 µg/mL (≈ 787 µM)
- MIC (Clostridium perfringens [8]): 128 µg/mL (≈ 393 µM)
- MIC [9]: 256 µg/mL (≈ 787 µM)
- MIC [10]: 8 µg/mL (≈ 24.6 µM)
- Diameter of inhibition zone (Staphylococcus aureus [5]): 24 mm
- MIC (Escherichia coli): > 160 µg/mL
- MIC [13]: 8 µg/mL (≈ 24.6 µM)

SMILES: CCC[C@@H]1C[C@@H](C(=O)N[C@@H]([C@H]2O[C@H](SC)[C@H](O)[C@@H](O)[C@H]2O)[C@H](C)Cl)N(C)C1 [CLINDAMYCIN]
- Diameter of inhibition zone (Bacteroides fragilis [1]): 30 mm
- Diameter of inhibition zone (Mycobacterium avium): Trace
- MIC (Bacteroides fragilis [6]): < 0.12 µg/mL
- Diameter of inhibition zone (Clostridium perfringens [2]): 24 mm
- MIC (Fusobacterium nucleatum): < 0.12 µg/mL
- Diameter of inhibition zone [3]: 22 mm
- Diameter of inhibition zone (Staphylococcus aureus [4]): 0 mm
- MIC (Cutibacterium acnes): < 0.12 µg/mL
- MIC [7]: 1 µg/mL (≈ 2.35 µM)
- MIC (Clostridium perfringens [8]): < 0.12 µg/mL
- MIC [9]: < 0.12 µg/mL
- MIC [10]: < 0.12 µg/mL
- Diameter of inhibition zone (Staphylococcus aureus [5]): 0 mm
- MIC [13]: 4 µg/mL (≈ 9.41 µM)

SMILES: CCCC(=O)OC/C(C)=C1\CN(C(=O)CCC)C1=O
- Diameter of inhibition zone (Bacteroides fragilis [1]): 25 mm
- Diameter of inhibition zone [3]: 0 mm
- Diameter of inhibition zone (Staphylococcus aureus [4]): 0 mm
- Diameter of inhibition zone (Staphylococcus aureus [5]): 0 mm
- Diameter of inhibition zone (Clostridium perfringens [14]): 30 mm

SMILES: CCCCCC(=O)N1C/C(=C(/C)COC2CCCCO2)C1=O (centres undefined)
- Diameter of inhibition zone (Bacteroides fragilis [1]): 0 mm
- Diameter of inhibition zone [3]: 0 diameter mm
- Diameter of inhibition zone (Staphylococcus aureus [4]): 0 mm
- Diameter of inhibition zone (Staphylococcus aureus [5]): 0 mm

SMILES: COCCOC(=O)N1C/C(=C(\C)CN=[N+]=[N-])C1=O
- Diameter of inhibition zone (Bacteroides fragilis [1]): 0 mm
- Diameter of inhibition zone (Clostridium perfringens [2]): 20 mm
- Diameter of inhibition zone (Staphylococcus aureus [4]): 26 mm
- Diameter of inhibition zone (Staphylococcus aureus [15]): 20 mm
- Diameter of inhibition zone [16]: 14 mm

SMILES: CCCCOC(=O)N1C[C@H]([C@H](C)CNC(C)=O)C1=O
- Diameter of inhibition zone (Bacteroides fragilis [1]): 36 mm
- Diameter of inhibition zone (Clostridium perfringens [2]): 19 mm
- Diameter of inhibition zone [3]: 0 mm
- Diameter of inhibition zone (Staphylococcus aureus [4]): 0 mm
- Diameter of inhibition zone (Staphylococcus aureus [5]): 0 mm

SMILES: CCCCCC(=O)N1C[C@H]([C@H](C)COC(C)=O)C1=O
- Diameter of inhibition zone [3]: 23 mm
- Diameter of inhibition zone (Staphylococcus aureus [4]): 36 mm
- Diameter of inhibition zone (Staphylococcus aureus [5]): 9 mm

SMILES: CCCC(=O)N1C[C@H]([C@H](C)COC(C)=O)C1=O
- Diameter of inhibition zone (Bacteroides fragilis [1]): 78 mm
- MIC (Bacteroides fragilis [6]): > 128 µg/mL
- MIC (Fusobacterium nucleatum): 64 µg/mL (≈ 265 µM)
- Diameter of inhibition zone [3]: 0 mm
- Diameter of inhibition zone (Staphylococcus aureus [4]): 0 mm
- MIC (Cutibacterium acnes): 32 µg/mL (≈ 133 µM)
- Diameter of inhibition zone (Clostridium perfringens [17]): 33 mm
- MIC [7]: 64 µg/mL (≈ 265 µM)
- MIC (Clostridium perfringens [8]): > 128 µg/mL
- MIC [9]: > 128 µg/mL
- MIC [10]: 64 µg/mL (≈ 265 µM)
- Diameter of inhibition zone (Staphylococcus aureus [5]): 0 mm
- MIC [13]: 64 µg/mL (≈ 265 µM)

SMILES: CC(=O)OC/C(C)=C1/CN(C(C)=O)C1=O
- Diameter of inhibition zone (Bacteroides fragilis [1]): 29 mm
- Diameter of inhibition zone (Clostridium perfringens [2]): 0 mm
- Diameter of inhibition zone [3]: 0 mm
- Diameter of inhibition zone (Staphylococcus aureus [4]): 0 mm
- Diameter of inhibition zone (Staphylococcus aureus [5]): 0 mm
